Reference: US8741948B2, “Oral antimicrobial pharmaceutical compositions” (Cosmo Technologies Ltd., priority 2004, dated 2014)

What was measured:
Assay in all cases: MIC evaluation on pathogenic bacterial strains
Type in all cases: cell-based
[1] = tested on: Salmonella typhi (ATCC 13331)
Text: (§1) In particular, the efficacy of rifamicin SV was verified by means of an evaluation of the MIC (Minimum Inhibiting Concentration) on specific pathogenic bacterial strains, such as, for example, Escherichia coli, […], Proteus vulgaris, Pseudomonas aeruginosa, Salmonella typhi and Enterobacter cloacae as shown in the following Table A.

[2] = tested on: Proteus vulgaris (ATCC 13315)
Text: as §1

[3] = tested on: Enterobacter faecalis (ATCC 29212)
Text: as §1

[4] = tested on: Pseudomonas aeruginosa (ATCC 27853)
Text: as §1

[5] = tested on: Staphylococcus aureus (ATCC 25213)
Text: as §1

[6] = tested on: Enterobacter cloacae (ATCC 17446431)
Text: as §1

[7] = tested on: Escherichia coli (ATCC 30218)
Text: as §1

Substance: rifamicin SV
- MIC (Minimum Inhibiting Concentration) [1]: >400 µg/mL
- MIC (Minimum Inhibiting Concentration) [2]: 400 µg/mL
- MIC (Minimum Inhibiting Concentration) [3]: 25 µg/mL
- MIC (Minimum Inhibiting Concentration) [4]: >400 µg/mL
- MIC (Minimum Inhibiting Concentration) [5]: <0.4 µg/mL
- MIC (Minimum Inhibiting Concentration) [6]: >400 µg/mL
- MIC (Minimum Inhibiting Concentration) [7]: 400 µg/mL
